86 compounds from a melting point compilation (Tetko et al.; mined from patent text by program, amines drawn as free bases though some values may be those of a salt) can be followed below.

Regarding `O=C1NC(=NC2CCCC2)C(c2ccc3[nH]ccc3c2)N1c1ccc2[nH]cnc2c1` (stereo unspecified), the melting point was 210 °C.

Turning to `COC(=O)[C@@H]1C[C@H](C(=O)OC(C)(C)C)N(C(=O)CNC(=O)Nc2ccc(Cl)cc2)[C@@H]1c1ccccc1` (racemic), the melting point amounted to 125 °C.

`CC(=O)N1Cc2nc(Cl)nc(Nc3ccc(F)c(Cl)c3)c2N=C1Cl` had a melting point of 178 °C.

`CCOP(=O)(Cc1nnc2c(=O)[nH]c3cc(C(F)(F)F)c([N+](=O)[O-])cc3n12)OCC` gave a melting point of 222 to 228 °C.

As for `O=C(Nc1ccc2c(c1)C(=O)CCCC2)OCc1ccccc1`, the melting point lay within 120 to 121 °C.

Compound `COC(=O)N1CCc2ccc3cc[nH]c3c2CC1` returned a melting point of 169 to 171 °C.

Compound `Cc1ccccc1NC(=O)C1(C)CCCCC1` registered a melting point of 138 °C.

`O=c1cccccc1N1CCN(c2cccc(C(F)(F)F)c2)CC1` registered a melting point of 112 to 114 °C.

`O=C(NC1CCCC1)N1CCc2[nH]cnc2C1` registered a melting point of 225 °C.

The compound `COc1cc(OC)nc(NC(=O)NS(=O)(=O)c2ccccc2C(C)=O)n1` registered a melting point of 126 to 128 °C.

`COCC(NC(C)C)c1c[nH]c2cccc(Oc3ccc(Cl)cc3)c12` (stereo unspecified) had a melting point of 149 to 150 °C.

As for `COc1cc2c(Nc3ccc(Sc4nccn4C)c(Cl)c3)c(C#N)cnc2cc1/C=C/CCN(C)C`, the melting point lay in the range of 215 to 225 °C.

Regarding `COc1cc2c(cc1OC)CN(CCCCc1ccc(NC(=O)c3cnc4cc(C)c(C)cc4n3)cc1)CC2`, the melting point was 100 to 105 °C.

Consider `CCOC(=O)c1cnc2ccnn2c1O`, for which the melting point is 81 °C.

For the compound `Cc1c(OCc2ccc(CC(C)C)cc2)ccc(C(=O)Nc2ccccc2OCCCC(=O)O)c1C`, the melting point is 143 °C.

Consider `CC(C)N1CCC(N2CCN(CCCN3CCOCC3)C2=C(C#N)C#N)CC1`, for which the melting point is 109 to 110 °C.

`CCc1nc2c(-c3cc4c(cc3C)OCC4)ncnc2n1C(C1CC1)C1CC1` had a melting point of 147 to 148 °C.

The compound `COc1cc(C(=O)O)c2c(c1OC)OC(C1CC1)C=C2` (stereo unspecified) displayed a melting point of 124 to 126 °C.

For `CCN(CC)C(=O)c1cc(-c2ccc(OC)cc2)c2ccsc2c1`, the melting point came out at 88 °C.

Compound `O=C(Nc1ccccc1)NN1CCN(CCc2c[nH]c3ccccc23)CC1` returned a melting point of 168 to 171 °C.

For the compound `O=C1c2ccc(F)cc2C(=O)N1c1ccc(Cl)cc1F`, the melting point was 122 to 123 °C.

For `C#CCOC(=O)N(I)C(C)C(=O)OC` (stereo unspecified), the melting point lay within 100 to 102 °C.

With `CCCCCc1ccc(OC(=O)c2ccc(OCC)c(F)c2F)cc1`, the melting point was 61 °C.

In turn, `CC(=O)NC(CSC(c1ccccc1)(c1ccccc1)c1ccccc1)C(=O)NCCSC(=O)C(C)C` (stereo unspecified) came in with a melting point of 147 to 148 °C.

As for `N#CNC(=N)NCCN1CCC(C2(c3ccc(F)cc3)OCCO2)CC1`, the melting point was in the range of 161 to 163 °C.

As for `CC(NC(=O)C(NC(=O)OCC1c2ccccc2-c2ccccc21)C(Cc1ccccc1)C(=O)O)C(=O)O` (stereo unspecified), the melting point lay within 114 to 116 °C.

In the case of `O=C1ONCC12CCOc1ccc(F)cc12` (stereo unspecified), the melting point is 153 to 155 °C.

In the case of `CCSC(=N)Nc1ccc2[nH]cc(C3=CCN(C)CC3)c2c1`, the melting point lay within 77 to 79 °C.

`O=C(O)c1ccccc1-c1cc(-c2ccccc2)on1`: the melting point was in the range of 144 to 146 °C.

The compound `C=CCC1(Cc2nc[nH]c2C)CCc2c(C)c3ccccc3n2C1=O` (stereo unspecified) came in with a melting point of 209 to 210 °C.

As to `O=c1[nH]c(N2CCOCC2)nc2c(N3CCCCCC3)nc(N3CCOCC3)cc12`, the melting point worked out at 240 °C.

On to `O=C(CCc1ccc(O)c(C=Nc2ccccc2O)c1)ON1C(=O)CCC1=O`, for which the melting point came out at 170 °C.

`Cc1cccc(-c2n[nH]cc2-c2ccc(F)c(-c3cnn(CCO)c3)c2)n1` registered a melting point of 132 to 135 °C.

With `COc1cc2c(cc1-c1ccccc1F)NC(=O)CC(c1cc(C#N)ccc1F)=N2`, the melting point was more than 250 °C.

Consider `COC(=O)COC(=O)C(Cc1cc(=O)[nH]c2ccccc12)NC(=O)c1ccc(Cl)cc1` (stereo unspecified), for which the melting point is 202 to 204 °C.

`O=C(NO)c1ccc(CNC(=O)c2[nH]c(-c3ccc(F)cc3)cc2-c2ccc(F)cc2)cc1` had a melting point of 219 to 220 °C.

Consider `NC(=O)c1cncc(OCC(O)CO)c1` (stereo unspecified), for which the melting point was in the range of 197 to 199 °C.

For `CCOC(=O)CC(=O)NNC(=O)c1cc2cccc(N(C)S(=O)(=O)c3cccs3)c2[nH]1`, the melting point lay within 119 to 121 °C.

On to `Cc1nn(-c2cc3nc(S)sc3cc2Cl)c(=O)n1C(F)F`, for which the melting point lay within 201 to 203 °C.

The compound `O=C(O)C1(c2ccc(Cl)cc2)OCC(c2ccc(F)cc2)(c2ccc(F)cc2)CO1` displayed a melting point of 228 to 230 °C.

`Cc1n[nH]c2cc(-c3nn(C(C)c4oc5ccc(F)cc5c(=O)c4-c4cccc(F)c4)c4ncnc(N)c34)ccc12` (stereo unspecified): the melting point was 234 to 236 °C.

Consider `COc1ccc(N(C(=O)CN2C(=O)C(Cc3nn(Cc4ccccc4)c4ccccc34)(OC)C(=O)N(c3cccnc3)c3ccccc32)C(C)C)cc1` (stereo unspecified), for which the melting point is 223 to 224 °C.

In the case of `O=C(O)Cc1cccc2c(-c3ccc(Br)cc3)onc12`, the melting point was in the range of 190 to 192 °C.

`O=C(N[C@H](Cc1ccccc1)C(=O)O)OCc1ccc2[nH]c(-c3ccccc3)cc2c1` returned a melting point of 176 to 177 °C.

For `CC(C)(C)OC(=O)N1C[C@H]2[C@@H](C1)C(c1ccccc1)(c1ccccc1)CC[C@@H]2O`, the melting point worked out at 190 °C.

For `CC(=O)Nc1nc2c(Oc3cc(-c4ccc(C(F)(F)F)cc4)c(-c4ccc(F)cc4)cn3)cccc2s1`, the melting point fell in the range of 112 to 130 °C.

With `CC(C)(C)CCC/C(=C\c1ccc(C(=O)O)cc1)Cn1ccnc1`, the melting point was 190 to 192 °C.

For the compound `C#CCn1c(=O)c(C(F)(F)F)cc2cc(F)c(-n3c(=O)cc(C(F)(F)F)n(C)c3=O)cc21`, the melting point was 248 to 250 °C.

`Cc1ccc2c(c1)C=Cc1sc(C)nc1C2c1cn(CCN2CCCC2)c(=O)[nH]c1=S` (stereo unspecified): the melting point was found to be 198 °C.

`O=C(Nc1ccc(C[C@H](NS(=O)(=O)N2CCCCCC2)C(=O)O)cc1)c1c(Cl)cncc1Cl` yielded a melting point of 185 °C.

As for `CCn1c(N)c(C(N)=O)c(=O)c2ccc(-c3ccncc3)cc21`, the melting point was more than 300 °C.

With `Cc1c(C(=O)NCC(=O)O)oc2cc(-c3ccc(Cn4c(C)nc5ccccc54)cc3)ccc12`, the melting point was in the range of 248 to 250 °C.

`COc1ccc(C2Nc3cc(OC)c(OC)cc3C(C)=[N+]2[O-])cc1` (stereo unspecified) came in with a melting point of 161 to 163 °C.

In the case of `CC#CCOc1ccc(S(=O)(=O)C2(C(=O)O)CCN(C(CC)CC)CC2)cc1`, the melting point was found to be 98 °C.

In turn, `COc1ccc(CCCC(=O)O)cc1NC(=O)C[C@H]1O[C@H](c2cccc(OC)c2OC)c2cc(Cl)ccc2N(CC(C)(C)CO)C1=O` gave a melting point of 119 to 121 °C.

Turning to `CN(CC#Cc1cc(CN2CCOCC2)cc2c(=O)c(C(=O)NCc3ccc(Cl)cc3)cn(C)c12)CCO`, the melting point was 148 to 149 °C.

Compound `CCOc1nc(NCc2ccco2)nc(N2CCN(Cc3ccccn3)CC2)n1` had a melting point of 115 to 117 °C.

As for `Cc1nc(N2CCN(CC3CC3)C2=O)sc1C(N)=O`, the melting point is 198 to 200 °C.

In turn, `CCn1cc(-c2ccc(F)c(C)c2)nc1COCc1ccccc1` returned a melting point of 200 °C.

The compound `Cc1c(Br)cc(-c2ccc(=O)[nH]n2)c(O)c1Br` came in with a melting point of more than 280 °C.

As for `CCOC(=O)[C@](CC(=O)OC1CC(C)CCC1C(C)C)(NC(=O)OCc1ccccc1)C(N)=O` (stereo partly specified), the melting point worked out at 124 °C.

Turning to `O=C(C1CCCCC1)N(CCN1CCN(CC(O)c2ccccc2)CC1)c1ccccn1` (stereo unspecified), the melting point was 140 to 142 °C.

On to `COc1ccc(S(=O)(=O)N(Cc2cccnc2)c2c(C(=O)O)cnc3c2c(C)nn3C)cc1`, for which the melting point was 256 to 258 °C.

In turn, `Oc1ccc2c(c1)CCC(n1cc[nH]c1=S)C2` (stereo unspecified) showed a melting point of 240 to 241 °C.

Consider `O=c1[nH]c(=O)c2ccncc2[nH]1`, for which the melting point stood at 365 °C.

As to `CC(C)c1nn(-c2ccc(C(F)(F)F)cn2)cc1CCCOc1c(CC(=O)O)cnn1C`, the melting point was in the range of 146 to 148 °C.

For `CCOC(=O)Cc1cc(C(=O)OC)ccc1NC(C)=O`, the melting point turned out to be 119 °C.

In turn, `COc1cccc2c1CC(N(CCCc1c[nH]c3ccc(F)cc13)CC1CCC1)CO2` (stereo unspecified) yielded a melting point of 115 °C.

Compound `CC1=C(C)C[C@H]2C(=O)CC(=O)[C@H]2C1` displayed a melting point of 157 to 158 °C.

Take `Cc1cn(-c2cc(NC(=O)c3cccc(Nc4nccc(-c5cccnc5)n4)c3)cc(C(F)(F)F)c2)cn1`: the melting point is 264 to 266 °C.

As for `COC1CCC(OS(C)(=O)=O)C(CN=[N+]=[N-])O1` (stereo unspecified), the melting point fell in the range of 54 to 56 °C.

With `CCNC(=O)Nc1nc2cc(-c3ccc(OC)nc3)ccn2n1`, the melting point was in the range of 230 to 233 °C.

In the case of `CCCn1cc(Cc2ccc(C(=O)O)cc2OC)c2cc(CCNC(=O)N3CCOCC3)ccc21`, the melting point lay within 105 to 113 °C.

For the compound `CNC(=O)c1ccc(F)c(F)c1`, the melting point lay in the range of 143 to 145 °C.

`O=C(O)COc1ccc(SCc2ccc(OCc3ccc(F)cc3F)cc2)c2c1CCC2`: the melting point fell in the range of 158 to 160 °C.

For the compound `CC(=NO)c1ccc2nnn(Cc3ccc4ncccc4c3)c2n1`, the melting point fell in the range of 259 to 261 °C.

`CCCCn1ccc(-c2ccc(Oc3ccc(C(=O)O)cc3)cc2)c(Cl)c1=O`: the melting point stood at 280 °C.

`O=C(O)CCCCCCCn1ccnc1` showed a melting point of 91 to 94 °C.

In turn, `CC(=O)OC(C)C1CCC2C3CC=C4C=CCCC4(C)C3CCC12C` (stereo unspecified) returned a melting point of 103 to 104 °C.

`Cc1cc(N)n(-c2c(Cl)cc(Cl)cc2Cl)n1` returned a melting point of 132 to 134 °C.

For the compound `CCc1cc(I)c(CC)cc1I`, the melting point fell in the range of 68 to 69 °C.

Consider `O=S1(=O)c2ccccc2N(c2ccccc2)c2ccccc21`, for which the melting point lay within 212 to 217 °C.

On to `O=C(c1ccccc1)N1CCC(CCl)CC1`, for which the melting point is 68 to 70 °C.

In the case of `COc1ccc(-c2c(C)nc(N)nc2C2CCN(C(=O)c3ccccc3)CC2)cc1`, the melting point was 226 to 227 °C.

On to `CC1(C)CCC(C)(C)c2cc(-c3cc(-c4ccc(C(=O)O)cc4)ccc3OCCCCCCCCO)ccc21`, for which the melting point was in the range of 155 to 160 °C.

`O=C(NCCc1ccc(O)cc1)OCc1ccccc1` returned a melting point of 96 to 98 °C.
